Measured values from patent publication US20070218460A1, “Method of Estimating Toxicity of Drug” (TAKEDA PHARMACEUTICAL COMPANY LIMITED, priority 2003, published 2007).
Where two headings read alike, the source gives them in different places.

Columns and labels:
[1] = system: HepG2 cells; assay: Highest concentration at which cells were viable after 72 hr exposure; format: cell-based, human
[2] = system: HepG2 cells; assay: Electron-microscopic examination of PLsis induction potential (myelin-like structure)
Text: Using 30 kinds of the following commercially available drugs as test compounds, the level of PLsis induction potential was examined with the emergence of an intracellular myelin-like structure or a structure having a high electron density, which is an early image thereof, as an index by electronmicroscopic observation.
HepG2 cells (purchased from ATCC) were exposed to the test compound by a conventional method. HepG2 cells used were of the cell growth phase. The attached HepG2 cells were washed twice with. Dulbecco's phosphate buffered saline (calcium and magnesium salt free; PBS(−))(Dainippon Pharmaceutical Co., Ltd.) containing 0.05 w/v % EDTA, detached with a cell dissociation solution of 0.25 vol % trypsin-1 mmol/L EDTA (Gibco BRL) diluted 2-fold with PBS(−), centrifuged to remove the supernatant, and adjusted to a concentration of 2×10^5 cells/250 μL with a culture medium [Dulbecco's modified Eagle medium (DMEM)(Gibco BRL) supplemented with 50 U/mL penicillin (Gibco BRL)-[…] streptomycin (Gibco BRL) and 5 vol % FBS (Bio whittaker)]. DMSO alone or a culture medium containing the above-mentioned test compound in DMSO solution was dispensed to a well by 250 μL, the above-mentioned cell suspension (250 μL) was added, and cultured in a CO2 incubator (7100; Napco) under an atmosphere of 5% CO2—95% air at 37° C.
After culture for 72 hr, the culture medium was removed, and the cells were fixed with 1 w/v % glutaraldehyde solution. After fixing with 2 w/v % osmic acid for 2 hr by a conventional method and dehydrating with an alcohol series, the cells were embedded in a resin (Quetol 812). Ultrathin slices were prepared and, after electron staining, observed with an electron microscope (H-300; Hitachi) and photographed in 3 or more pictures per each sample (magnification ×5000). The processing after post-fixation was performed by Applied Medical Research.

[3] = system: flj22362; assay: Real-time quantitative PCR of PLsis marker gene expression; format: cell-based, human; settings: HepG2 cells, 24 hr exposure, relative value, control group = 1.0, GAPDH internal standard, n=3
Protocol: (§1) Using RNeasy Mini Kit (QIAGEN), total RNA was purified from the cells, and cDNA was synthesized in a 100 μL system using TaqMan Reverse Transcription Reagents (PE Applied Biosystems).
(§2) As the primer for glyceraldehyde-3-phosphoric acid dehydrogenase (GAPDH) and VIC labeled probe, those attached to TaqMan GAPDH Control Reagents (PE Applied Biosystems) were used.
(§3) Using 100 μL of the reaction mixture containing 5 μL of cDNA (1×TaqMan Universal PCR Master Mix (PE Applied Biosystems), 200 nM forward primer, 200 nM reverse primer and 200 nM TaqMan probe), 40 cycles of (1 cycle=95° C., 15 sec; 60° C., 1 min) PCR were performed. PCR and fluorescence detection were performed using ABI PRISM Sequence Detector 7000 (PE Applied Biosystems). As the internal standard, GAPDH was used to amend the measurement values. For the determination of significant difference, t-test was used (n=3).
(§4) For each test compound, the expression variation rate of 12 genes each relative to the control group was determined.

[4] = system: nr0b2; assay: as above; format: cell-based, human; settings: HepG2 cells, 24 hr exposure, relative value, control group = 1.0, GAPDH internal standard, n=3
Protocol: as §1, §2, §3, §4

[5] = system: serpina3; assay: as above; format: cell-based, human; settings: HepG2 cells, 24 hr exposure, relative value, control group = 1.0, GAPDH internal standard, n=3
Protocol: as §1, §2, §3, §4

[6] = system: hpn; assay: as above; format: cell-based, human; settings: HepG2 cells, 24 hr exposure, relative value, control group = 1.0, GAPDH internal standard, n=3
Protocol: as §1, §2, §3, §4

[7] = system: mgc4171; assay: as above; format: cell-based, human; settings: HepG2 cells, 24 hr exposure, relative value, control group = 1.0, GAPDH internal standard, n=3
Protocol: as §1, §2, §3, §4

[8] = system: slc2a3; assay: as above; format: cell-based, human; settings: HepG2 cells, 24 hr exposure, relative value, control group = 1.0, GAPDH internal standard, n=3
Protocol: as §1, §2, §3, §4

[9] = system: asah1; assay: as above; format: cell-based, human; settings: HepG2 cells, 24 hr exposure, relative value, control group = 1.0, GAPDH internal standard, n=3
Protocol: as §1, §2, §3, §4

[10] = system: kiaa1001; assay: as above; format: cell-based, human; settings: HepG2 cells, 24 hr exposure, relative value, control group = 1.0, GAPDH internal standard, n=3
Protocol: as §1, §2, §3, §4

[11] = system: lss; assay: as above; format: cell-based, human; settings: HepG2 cells, 24 hr exposure, relative value, control group = 1.0, GAPDH internal standard, n=3
Protocol: as §1, §2, §3, §4

[12] = system: fabp1; assay: as above; format: cell-based, human; settings: HepG2 cells, 24 hr exposure, relative value, control group = 1.0, GAPDH internal standard, n=3
Protocol: as §1, §2, §3, §4

[13] = system: tagln; assay: as above; format: cell-based, human; settings: HepG2 cells, 24 hr exposure, relative value, control group = 1.0, GAPDH internal standard, n=3
Protocol: as §1, §2, §3, §4

[14] = system: depp; assay: as above; format: cell-based, human; settings: HepG2 cells, 24 hr exposure, relative value, control group = 1.0, GAPDH internal standard, n=3
Protocol: as §1, §2, §3, §4

SMILES | addition concentration (highest concentration at which cells survived after 72 hr of culture) [1] [µmol/L] | frequency of appearance of myelin-like structure [2] | expression variation rate flj22362 [3] | expression variation rate nr0b2 [4] | expression variation rate serpina3 [5] | expression variation rate hpn [6] | expression variation rate mgc4171 [7] | expression variation rate slc2a3 [8] | expression variation rate asah1 [9] | expression variation rate kiaa1001 [10] | expression variation rate lss [11] | expression variation rate fabp1 [12] | expression variation rate tagln [13] | expression variation rate depp [14] | frequency of appearance of myelin-like structure ([2]; HepG2 cells, 72 hr culture, electron microscopy, blind test n=4, addition concentration 8.3 or 25 μmol/L) | frequency of appearance of myelin-like structure ([2]; HepG2 cells, 72 hr, electromicroscopic test, class symbols in head of Table 2)
CNS(=O)(=O)Cc1ccc2[nH]cc(CCN(C)C)c2c1 [sumatriptan] | 25 | − | 1.26 | 0.63 | 0.95 | 1.16 | 0.99 | 0.99 | 1.35 | 1.34 | 1.23 | 1.01 | 1.06 | 1.05 |  | 
CN1CCN(C(c2ccccc2)c2ccc(Cl)cc2)CC1 (centres unmarked) [chlorcyclizine] | 25 | +++ | 2.96 | 2.46 | 2.23 | 2.97 | 2.43 | 0.20 | 3.23 | 2.47 | 2.98 | 2.62 | 0.30 | 3.24 |  | 
CC(=O)N1CCN(c2ccc(OCC3COC(Cn4ccnc4)(c4ccc(Cl)cc4Cl)O3)cc2)CC1 (centres unmarked) [ketoconazole] | 8.3 | + | 1.95 | 2.36 | 2.37 | 2.71 | 1.53 | 0.48 | 1.47 | 2.24 | 4.33 | 5.30 | 0.71 | 2.29 |  | 
C=C[C@H]1C[N@@]2CC[C@H]1C[C@@H]2[C@@H](O)c1ccnc2ccc(OC)cc12 [quinidine] | 25 | − |  |  |  |  |  | 0.37 | 1.43 |  |  | 1.38 | 0.63 |  |  | 
CCN(CC)CCNC(=O)c1ccc(N)cc1 [procainamide] | 25 | − | 0.73 | 0.74 | 0.96 | 1.08 | 1.08 | 0.88 | 0.86 | 1.78 | 0.90 | 1.00 | 0.85 | 0.98 |  | 
CC(=O)Nc1ccc(O)cc1 [acetaminophen] | 25 |  | 1.02 | 0.69 | 0.99 | 1.10 | 0.75 | 1.50 | 1.18 | 1.13 | 0.91 | 1.11 | 0.93 | 0.94 |  | 
CN1CCN(C2=Nc3cc(Cl)ccc3Nc3ccccc32)CC1 [clozapine] | 25 | ++ | 1.92 | 1.97 | 1.96 | 2.35 | 1.88 | 0.24 |  | 3.34 |  | 3.89 | 0.24 | 5.15 |  | 
N=C(N)c1ccc(OCCCCCOc2ccc(C(=N)N)cc2)cc1 [pentamidine] | 8.3 |  | 2.49 | 1.83 | 2.12 | 2.50 | 0.73 | 0.50 | 0.93 | 1.82 | 0.52 | 0.15 | 0.68 | 2.88 |  | 
CCOC(=O)N1CCC(=C2c3ccc(Cl)cc3CCc3cccnc32)CC1 [loratadine] | 8.3 |  |  |  |  |  |  |  |  |  |  |  |  |  | mild | +
CN(C)CCCN1c2ccccc2CCc2ccccc21 [imipramine] | 25 |  | 1.80 | 3.41 | 2.12 | 2.32 | 1.81 | 0.15 | 4.52 | 2.11 | 2.69 | 2.45 | 0.15 | 3.36 |  | 
